Key:
protein sample [1] = test: Protein stability screen: protein melting point temperature in MES/BTP buffer mixture; assay type: physicochemical; settings: Hoefmeister Series screen; higher Tm
From the text: In one embodiment, the present invention contemplates a method comprising a physiologic buffer mixture having a temperature-stable pKa to identify test compounds that increase stability of a sample protein by performing a protein melting point temperature screen. […] Although it is not necessary to understand the mechanism of an invention it is believed that a protein stability screen acts to define the bulk properties of a solution system (i.e. impact of pH, ionic strength, buffer etc.) and not just one specific component like most of the other screening conditions. The buffer system also acts as an internal control that simultaneously compares new and old conditions under identical conditions. Although commonly used previously, a urea stability test provides validation and verification of all testing parameters by comparative analysis with historical literature. DMSO screening allows for the nomination of conditions where protein compounds are usually insoluble (e.g., for example, drug binding studies) to identify the proper use of DMSO to solubilize these compounds without effecting the performance of the intended assay.
See, FIG. 1. […] See, FIG. 3. […] See, FIG. 4. […] See, FIG. 5. […] See, FIG. 6.
A metal ion screen was performed that compared the relative effects of five (5) different metal chloride ions, each at two different concentrations. See, FIG. 7. […] See, FIG. 8.
In one embodiment, the kit instructions comprise the following steps: • i) pre-chill the RT-PCR plate at 4° C. for 15-30 minutes prior to the addition of reagents and/or protein sample to each of the wells. • ii) The dye vial and kit plates should be stored at −20° C. and away from light until the time of use. • iii) Add 5 μl of dye to 500 μl of protein sample. The dye to protein ratio can be modified to any particular protein. For example, smaller proteins or proteins with a small hydrophobic core may require an increased dye concentration. • iv) Transfer 5 μl of each solution from the well plate to a corresponding well of the RT-PCR plate. • v) Add 5 μl of the protein/dye mixture to each well of the RT-PCR plate (>0.5 mg/ml). • vi) Mix the solutions by pipetting up and down (˜5 times). • a) gently placing all solutions at the bottom of the avoids subsequent plate centrifugation. • vii) Seal the RT-PCR plate. • viii) Immediately load the TR-PCR plate into the instrument and begin the programmed heating schedule (approximate timeframe=62 minutes), for example: • a) Heat to 20 C • b) Ramp to 90 C in 0.5 C increments. • c) Ramp to 4 C with a two minute schedule. • ix) Upload stored data file to a designated website (e.g., for example, caymanchem.com/deltatm) and follow the instructions.

protein sample [2] = test: Protein quality control screen: melting point temperature vs pH and NaCl concentration; assay type: physicochemical
From the text: In one embodiment, the present invention contemplates a method comprising a protein quality control screen. Although it is not necessary to understand the mechanism of an invention, it is believed that a quality control screen may be used to analyze: i) comparison of protein state prior to storage and post storage; ii) protein synthesis/purification lot-to-lot comparison; and iii) protein synthesis/purification batch testing. In one embodiment, the protein quality control screen measures protein melting point temperature while varying both pH concentration and ionic strength (e.g., for example, using a sodium chloride dose response curve). See, Table 1.
In one embodiment, a three dimensional map of the protein melting point temperatures is created by plotting the melting point determinations relative to pH and ionic strength. See. FIG. 15.

## [Cl-].[Na+] [sodium chloride]
Protein sample [1]
  effect on protein stability (Tm): improved the stability of the protein
Protein sample [2]; pH 5, NaCl Concentration 0.125
  protein melting point temperature: 73 °C
Protein sample [2]; pH 5, NaCl Concentration 0.25
  protein melting point temperature: 73.5 °C
Protein sample [2]; pH 5, NaCl Concentration 0.5
  protein melting point temperature: 74.5 °C
Protein sample [2]; pH 5, NaCl Concentration 0.75
  protein melting point temperature: 76 °C
Protein sample [2]; pH 5, NaCl Concentration 1
  protein melting point temperature: 76.5 °C
Protein sample [2]; pH 5, NaCl Concentration 1.25
  protein melting point temperature: 77 °C
Protein sample [2]; pH 5, NaCl Concentration 1.5
  protein melting point temperature: 77 °C
Protein sample [2]; pH 5, NaCl Concentration 1.75
  protein melting point temperature: 76.5 °C
Protein sample [2]; pH 5, NaCl Concentration 2
  protein melting point temperature: 77 °C
Protein sample [2]; pH 5.5, NaCl Concentration 0.125
  protein melting point temperature: 75 °C
Protein sample [2]; pH 5.5, NaCl Concentration 0.25
  protein melting point temperature: 75 °C
Protein sample [2]; pH 5.5, NaCl Concentration 0.5
  protein melting point temperature: 75 °C
Protein sample [2]; pH 5.5, NaCl Concentration 0.75
  protein melting point temperature: 76 °C
Protein sample [2]; pH 5.5, NaCl Concentration 1
  protein melting point temperature: 76.5 °C
Protein sample [2]; pH 5.5, NaCl Concentration 1.25
  protein melting point temperature: 77 °C
Protein sample [2]; pH 5.5, NaCl Concentration 1.5
  protein melting point temperature: 77 °C
Protein sample [2]; pH 5.5, NaCl Concentration 1.75
  protein melting point temperature: 77.5 °C
Protein sample [2]; pH 5.5, NaCl Concentration 2
  protein melting point temperature: 77.5 °C
Protein sample [2]; pH 6, NaCl Concentration 0.125
  protein melting point temperature: 75 °C
Protein sample [2]; pH 6, NaCl Concentration 0.25
  protein melting point temperature: 76 °C
Protein sample [2]; pH 6, NaCl Concentration 0.5
  protein melting point temperature: 76 °C
Protein sample [2]; pH 6, NaCl Concentration 0.75
  protein melting point temperature: 76.5 °C
Protein sample [2]; pH 6, NaCl Concentration 1
  protein melting point temperature: 77 °C
Protein sample [2]; pH 6, NaCl Concentration 1.25
  protein melting point temperature: 77 °C
Protein sample [2]; pH 6, NaCl Concentration 1.5
  protein melting point temperature: 77 °C
Protein sample [2]; pH 6, NaCl Concentration 1.75
  protein melting point temperature: 78 °C
Protein sample [2]; pH 6, NaCl Concentration 2
  protein melting point temperature: 77.5 °C
Protein sample [2]; pH 6.5, NaCl Concentration 0.125
  protein melting point temperature: 76 °C
Protein sample [2]; pH 6.5, NaCl Concentration 0.25
  protein melting point temperature: 76.5 °C
Protein sample [2]; pH 6.5, NaCl Concentration 0.5
  protein melting point temperature: 76.5 °C
Protein sample [2]; pH 6.5, NaCl Concentration 0.75
  protein melting point temperature: 77 °C
Protein sample [2]; pH 6.5, NaCl Concentration 1
  protein melting point temperature: 77.5 °C
Protein sample [2]; pH 6.5, NaCl Concentration 1.25
  protein melting point temperature: 77.5 °C
Protein sample [2]; pH 6.5, NaCl Concentration 1.5
  protein melting point temperature: 77.5 °C
Protein sample [2]; pH 6.5, NaCl Concentration 1.75
  protein melting point temperature: 78 °C
Protein sample [2]; pH 6.5, NaCl Concentration 2
  protein melting point temperature: 78 °C
Protein sample [2]; pH 7, NaCl Concentration 0.125
  protein melting point temperature: 76 °C
Protein sample [2]; pH 7, NaCl Concentration 0.25
  protein melting point temperature: 76.5 °C
Protein sample [2]; pH 7, NaCl Concentration 0.5
  protein melting point temperature: 77 °C
Protein sample [2]; pH 7, NaCl Concentration 0.75
  protein melting point temperature: 77.5 °C
Protein sample [2]; pH 7, NaCl Concentration 1
  protein melting point temperature: 77.5 °C
Protein sample [2]; pH 7, NaCl Concentration 1.25
  protein melting point temperature: 77.5 °C
Protein sample [2]; pH 7, NaCl Concentration 1.5
  protein melting point temperature: 77.5 °C
Protein sample [2]; pH 7, NaCl Concentration 1.75
  protein melting point temperature: 77 °C
Protein sample [2]; pH 7, NaCl Concentration 2
  protein melting point temperature: 77 °C
Protein sample [2]; pH 7.5, NaCl Concentration 0.125
  protein melting point temperature: 76.5 °C
Protein sample [2]; pH 7.5, NaCl Concentration 0.25
  protein melting point temperature: 77.5 °C
Protein sample [2]; pH 7.5, NaCl Concentration 0.5
  protein melting point temperature: 77.5 °C
Protein sample [2]; pH 7.5, NaCl Concentration 0.75
  protein melting point temperature: 78 °C
Protein sample [2]; pH 7.5, NaCl Concentration 1
  protein melting point temperature: 77.5 °C
Protein sample [2]; pH 7.5, NaCl Concentration 1.25
  protein melting point temperature: 76.5 °C
Protein sample [2]; pH 7.5, NaCl Concentration 1.5
  protein melting point temperature: 76 °C
Protein sample [2]; pH 7.5, NaCl Concentration 1.75
  protein melting point temperature: 76 °C
Protein sample [2]; pH 7.5, NaCl Concentration 2
  protein melting point temperature: 75 °C
Protein sample [2]; pH 8, NaCl Concentration 0.125
  protein melting point temperature: 75.5 °C
Protein sample [2]; pH 8, NaCl Concentration 0.25
  protein melting point temperature: 77.5 °C
Protein sample [2]; pH 8, NaCl Concentration 0.5
  protein melting point temperature: 76.5 °C
Protein sample [2]; pH 8, NaCl Concentration 0.75
  protein melting point temperature: 77.5 °C
Protein sample [2]; pH 8, NaCl Concentration 1
  protein melting point temperature: 76.5 °C
Protein sample [2]; pH 8, NaCl Concentration 1.25
  protein melting point temperature: 76.5 °C
Protein sample [2]; pH 8, NaCl Concentration 1.5
  protein melting point temperature: 76 °C
Protein sample [2]; pH 8, NaCl Concentration 1.75
  protein melting point temperature: 75 °C
Protein sample [2]; pH 8, NaCl Concentration 2
  protein melting point temperature: 74.5 °C
Protein sample [2]; pH 8.5, NaCl Concentration 0.125
  protein melting point temperature: 75 °C
Protein sample [2]; pH 8.5, NaCl Concentration 0.25
  protein melting point temperature: 75.5 °C
Protein sample [2]; pH 8.5, NaCl Concentration 0.5
  protein melting point temperature: 76 °C
Protein sample [2]; pH 8.5, NaCl Concentration 0.75
  protein melting point temperature: 77 °C
Protein sample [2]; pH 8.5, NaCl Concentration 1
  protein melting point temperature: 76 °C
Protein sample [2]; pH 8.5, NaCl Concentration 1.25
  protein melting point temperature: 75 °C
Protein sample [2]; pH 8.5, NaCl Concentration 1.5
  protein melting point temperature: 75 °C
Protein sample [2]; pH 8.5, NaCl Concentration 1.75
  protein melting point temperature: 75 °C
Protein sample [2]; pH 8.5, NaCl Concentration 2
  protein melting point temperature: 74.5 °C
Protein sample [2]; pH 9, NaCl Concentration 0.125
  protein melting point temperature: 75 °C
Protein sample [2]; pH 9, NaCl Concentration 0.25
  protein melting point temperature: 75 °C
Protein sample [2]; pH 9, NaCl Concentration 0.5
  protein melting point temperature: 75.5 °C
Protein sample [2]; pH 9, NaCl Concentration 0.75
  protein melting point temperature: 75 °C
Protein sample [2]; pH 9, NaCl Concentration 1
  protein melting point temperature: 75 °C
Protein sample [2]; pH 9, NaCl Concentration 1.25
  protein melting point temperature: 75 °C
Protein sample [2]; pH 9, NaCl Concentration 1.5
  protein melting point temperature: 75 °C
Protein sample [2]; pH 9, NaCl Concentration 1.75
  protein melting point temperature: 74.5 °C
Protein sample [2]; pH 9, NaCl Concentration 2
  protein melting point temperature: 74 °C
